Experimental data taken from patent US7566787B2, “Small molecule cyclin D1 ablative agents” (The Ohio State University, priority 2004, dated 2009).
Peptide text beside a SMILES is read from it. * marks the point of attachment. Cbz = O=C(OCc1ccccc1)*

Experiments:
[1] = system: MCF-7 cells; experiment: MTT cell viability assay; type: cell-based; conditions: Homo sapiens, MCF7, cell viability data, read-out: IC50 for MTT
Protocol: Cell viability analysis. The effect of individual test agents on cell viability was assessed by using the MTT [3-(4,5-dimethylthiazol-2-yl)-2,5-diphenyl-2H-tetrazolium bromide] assay in six replicates. Cells were seeded and incubated in 96-well, flat-bottomed plates in DMEM-F12 media with 10% FBS for 24 h, and were exposed to various concentrations of test agents dissolved in DMSO (final DMSO concentration, 0.1%) in 5% FBS-supplemented DMEM-F12 medium. Controls received DMSO vehicle at a concentration equal to that of drug-treated cells. The medium was removed, replaced by 200 μl of 0.5 mg/ml of MTT in 10% FBS-containing RPMI-1640 medium, and cells were incubated in the CO2 incubator at 37° C. for 2 h. Supernatants were removed from the wells, and the reduced MTT dye was solubilized in 200 μl/well DMSO. Absorbance at 570 nm was determined on a plate reader.

[2] = system: cyclin D1; experiment: Western blot analysis of cyclin D1 expression in MCF-7 cells; type: cell-based, human; conditions: for IC50: western blot data, read-out: IC50 for WB; for minimum concentration required for the complete ablation of cyclin D1 / effect of co-treatment on TG- and Δ2-TG-induced cyclin D1 ablation: 24 h; for minimum concentration required for the complete ablation of cyclin D1: 5% FBS; for effect of co-treatment on TG- and Δ2-TG-induced cyclin D1 ablation: with 40 μM TG or 30 μM Δ2-TG
Protocol: Western Blot Analysis. MCF-7 or MDA-MB-231 cells were seeded in 10% FBS-containing DMEM-F-12 for 24 h and treated with various agents as indicated. After individual treatments for 24 h, both the incubation medium and adherent cells in T-25 or T-75 flasks were scraped and collected by centrifugation at 2,000×g for 10 min. The pellets were recovered, placed on ice, and triturated with 20 to 50 μl of a chilled lysis buffer (M-PER® Mammalian Protein Extraction Reagent, Pierce, Rockford, Ill.) to which was added 1% protease inhibitor cocktail (set III, EMD Biosciences, Inc. San Diego, Calif.). After a 30 min-incubation on ice, the mixture was centrifuge at 16,100×g for 3 min. Two μl of the suspension was taken for protein analysis using the Bradford assay kit (Bio-Rad, Hercules, Calif.). To the remaining solution was added the same volume of 2× SDS-PAGE sample loading buffer (100 mM Tris-HCl, pH 6.8, 4% SDS, 5% β-mercaptoethanol 20% glycerol, and 0.1% bromophenol blue). The mixture was boiled for 10 min. Equal amounts of proteins were loaded onto 10% SDS-PAGE gels. After electrophoresis, protein bands were transferred to nitrocellulose membranes in a semi-dry transfer cell. The transblotted membrane was blocking with TBST [Tris-buffered saline (TBS) containing 0.1% Tween 20] containing 5% nonfat milk for 90 min, and the membrane was incubated with the appropriate primary antibody in TBST-5% nonfat milk at 4° C. overnight. After washing three times with TBST for a total of 45 min, the transblotted membrane was incubated with goat anti-rabbit or anti-mouse IgG-horseradish peroxidase conjugates (diluted 1:1000) for 1 h at room temperature and washed four times with TBST for a total of 1 h. The immunoblots were visualized by enhanced chemiluminescence.

SMILES | IC50 [1] | IC50 [2] | other results
CC(C)=CCOc1c(C)c(C)c2c(c1C)CCC(C)(COc1ccc(/C=C/C(=O)O)cc1Br)O2 (stereo not drawn) [TG-37] | 34 µM | > 7.5 µM | 
COc1cc(/C=C2\SC(=O)NC2=O)cc(Br)c1OCC1(C)CCc2c(C)c(OCC=C(C)C)c(C)c(C)c2O1 (stereo not drawn) [TG-44] | 14.5 µM | > 7.5 µM | 
CC(C)=CCOc1c(C)c(C)c2c(c1C)CCC(C)(COc1ccc(/C=C3\SC(=O)NC3=O)cc1C)O2 (stereo not drawn) [TG-17] | 14.5 µM |  | 
CC(C)=CCOc1c(C)c(C)c2c(c1C)CCC(C)(COc1ccc(/C=C3\SC(=O)NC3=O)cc1F)O2 (stereo not drawn) [TG-30] | 12.5 µM |  | 
CC1(COc2ccc(CC3SC(=O)NC3=O)cc2)CCCCC1 (stereo not drawn) [CG, ciglitazone, reference compound] |  |  | minimum concentration required for the complete ablation of cyclin D1 [2]: 50 µM
Cc1c(C)c2c(c(C)c1OCc1ccccc1)CCC(C)(COc1ccc(/C=C3\SC(=O)NC3=O)cc1)O2 (stereo not drawn) [TG-12] | 16.7 µM |  | 
O=C(Nc1ccccc1)c1cc([N+](=O)[O-])ccc1Cl [GW9962, reference compound] |  |  | effect of co-treatment on TG-mediated cyclin D1 down-regulation ([2]; concentrations three orders of magnitude higher than the IC50 in PPARγ binding): did not prevent; effect on cyclin D1 expression ([2]; high doses / comparable concentrations): no appreciable effect
CC(C)=CCOc1c(C)c(C)c2c(c1C)CCC(C)(COc1ccc(/C=C3\SC(=O)NC3=O)c3ccccc13)O2 (stereo not drawn) [TG-43] | 14.5 µM |  | 
C=CCOc1c(C)c(C)c2c(c1C)CCC(C)(COc1ccc(/C=C3\SC(=O)NC3=O)cc1OCC)O2 (stereo not drawn) [TG-55] | 17 µM | > 7.5 µM | 
Cc1c(C)c2c(c(C)c1OC(=O)CCC(=O)O)CCC(C)(COc1ccc(/C=C3\SC(=O)NC3=O)cc1)O2 (stereo not drawn) [TG-13] | > 50 µM | > 7.5 µM | 
C=CCOc1c(C)c(C)c2c(c1C)CCC(C)(COc1ccc(/C=C3\SC(=S)NC3=O)cc1)O2 (stereo not drawn) [TG-3] | 11 µM | 3.5 µM | 
C=CCOc1c(C)c(C)c2c(c1C)CCC(C)(COc1ccc(/C=C3\SC(=O)N(CC(=O)OC)C3=O)cc1)O2 (stereo not drawn) [TG-9] | > 50 µM | > 7.5 µM | 
C=CCOc1c(C)c(C)c2c(c1C)CCC(C)(COc1ccc(/C=C3\SC(=O)NC3=O)cc1OC)O2 (stereo not drawn) [TG-28] | 14.5 µM |  | 
Cn1cc(C2=C(c3ccc(Cl)cc3Cl)C(=O)NC2=O)c2ccccc21 [SB216763, reference compound] |  |  | effect of co-treatment on TG- and Δ2-TG-induced cyclin D1 ablation [2]: could not rescue
C=CCOc1c(C)c(C)c2c(c1C)CCC(C)(COc1ccc(/C=C3\SC(=O)NC3=O)cc1Br)O2 (stereo not drawn) [TG-27] | 28 µM | > 7.5 µM | 
C=CCOc1c(C)c(C)c2c(c1C)CCC(C)(COc1c(Br)cc(/C=C3\SC(=O)NC3=O)cc1OC)O2 (stereo not drawn) [TG-54] | 17.5 µM |  | 
CCOC(=O)C(=Cc1ccc(OCC2(C)CCc3c(C)c(OCC=C(C)C)c(C)c(C)c3O2)c(Br)c1)C(=O)OCC (stereo not drawn) [TG-41] | > 50 µM | > 7.5 µM | 
CC(C)=CCOc1c(C)c(C)c2c(c1C)CCC(C)(COc1ccc(C(O)C(C)(C)C(=O)O)cc1Br)O2 (stereo not drawn) [TG-39] | 46 µM | > 7.5 µM | 
CC(C)=CCOc1c(C)c(C)c2c(c1C)CCC(C)(COc1ccc(/C=C3\SC(=O)NC3=O)cc1Br)O2 (stereo not drawn) [TG-88] | 14.5 µM | > 7.5 µM | 
CC(C)=CCOc1c(C)c(C)c2c(c1C)CCC(C)(COc1ccc(/C=C3\SC(=O)NC3=O)cc1-c1ccc(C(F)(F)F)cc1)O2 (stereo not drawn) [TG-31] | > 50 µM | > 7.5 µM | 
CCOC(=O)C(C)(C)C(O)c1ccc(OCC2(C)CCc3c(C)c(OCC=C(C)C)c(C)c(C)c3O2)c(Br)c1 (stereo not drawn) [TG-38] | > 50 µM |  | 

SMILES | IC50 [1] | IC50 [2] | other results
Cc1c(C)c2c(c(C)c1OC/C=C/c1ccccc1)CCC(C)(COc1ccc(/C=C3\SC(=O)NC3=O)cc1Br)O2 (stereo not drawn) [TG-11] | 28.5 µM | > 7.5 µM | 
CC(C)=CCOc1c(C)c(C)c2c(c1C)CCC(C)(COc1c(Br)cc(/C=C3\SC(=O)NC3=O)cc1Br)O2 (stereo not drawn) [TG-34] | 15.5 µM |  | 
C=CCOc1c(C)c(C)c2c(c1C)CCC(C)(COc1ccc(/C=C3\SC(=O)NC3=O)c3ccccc13)O2 (stereo not drawn) [TG-53] | 14.5 µM |  | 
C=CCOc1c(C)c(C)c2c(c1C)CCC(C)(COc1cccc(/C=C3\SC(=O)NC3=O)c1)O2 (stereo not drawn) [TG-51] | 40 µM |  | 
CC(=O)N[C@@H](CSC(=O)[C@]1([C@@H](O)C(C)C)NC(=O)[C@H](C)[C@@H]1O)C(=O)O [lactacystin, reference compound] |  |  | effect of co-treatment on TG- and Δ2-TG-induced cyclin D1 ablation [2]: effective in rescuing
CC(C)=CCOc1c(C)c(C)c2c(c1C)CCC(C)(COc1ccc(/C=C3\SC(=O)NC3=O)cc1)O2 (stereo not drawn) [TG-14] | 14.5 µM | 7 µM | 
Cc1c(C)c2c(c(C)c1O)CCC(C)(COc1ccc(CC3SC(=O)NC3=O)cc1)O2 (stereo not drawn) [TG, troglitazone, reference compound] |  |  | time of complete ablation of cyclin D1 ([2]; 40 μM TG, 30 μM Δ2-TG): 24 h; minimum concentration required for the complete ablation of cyclin D1 [2]: 40 µM
CC(C)=CCOc1c(C)c(C)c2c(c1C)CCC(C)(COc1ccc(C=C(C(=O)O)C(=O)O)cc1Br)O2 (stereo not drawn) [TG-42] | > 50 µM | > 7.5 µM | 
CC(C)=CCOc1c(C)c(C)c2c(c1C)CCC(C)(COc1ccc(/C=C3\SC(=S)NC3=O)c3ccccc13)O2 (stereo not drawn) [TG-46] | 37.3 µM |  | 
Cc1c(C)c2c(c(C)c1OC/C=C/c1ccccc1)CCC(C)(COc1ccc(/C=C3\SC(=O)NC3=O)cc1)O2 (stereo not drawn) [TG-10] | 19 µM | > 7.5 µM | 
CC[C@H](C)[C@H](NC(=O)[C@H]([C@@H](C)CC)N(C)C(C)=O)C(=O)N[C@H](C(=O)N[C@@H](CC(C)C)C(=O)[C@@]1(C)CO1)[C@@H](C)O [epoxomicin, reference compound] |  |  | effect of co-treatment on TG- and Δ2-TG-induced cyclin D1 ablation [2]: effective in rescuing
CC(C)=CCOc1c(C)c(C)c2c(c1C)CCC(C)(COc1ccc(/C=C3\SC(=O)NC3=O)cc1[N+](=O)[O-])O2 (stereo not drawn) [TG-35] | 38 µM |  | 
C=CCOc1c(C)c(C)c2c(c1C)CCC(C)(COc1ccc(/C=C3\SC(=O)NC3=O)cc1C)O2 (stereo not drawn) [TG-29] | 23.5 µM |  | 
CCOc1cc(/C=C2\SC(=O)NC2=O)ccc1OCC1(C)CCc2c(C)c(OCC=C(C)C)c(C)c(C)c2O1 (stereo not drawn) [TG-45] | 13 µM |  | 
CC(C)=CCOc1c(C)c(C)c2c(c1C)CCC(C)(COc1ccc(/C=C3\SC(=O)NC3=O)cc1-c1ccc(F)cc1)O2 (stereo not drawn) [TG-32] | 19.5 µM | > 7.5 µM | 
COc1cc(/C=C2\SC(=O)NC2=O)ccc1OCC1(C)CCc2c(C)c(OCC=C(C)C)c(C)c(C)c2O1 (stereo not drawn) [TG-16] | 15 µM |  | 
C=CCOc1c(C)c(C)c2c(c1C)CCC(C)(COc1c(C)cc(/C=C3\SC(=O)NC3=O)cc1C)O2 (stereo not drawn) [TG-52] | 10.5 µM |  | 
CCc1ccc(-c2cc(/C=C3\SC(=O)NC3=O)ccc2OCC2(C)CCc3c(C)c(OCC=C(C)C)c(C)c(C)c3O2)cc1 (stereo not drawn) [TG-33] | > 50 µM | > 7.5 µM | 
CC(C)C[C@@H](C=O)NC(=O)[C@H](CC(C)C)NC(=O)[C@H](CC(C)C)NC(=O)OCc1ccccc1 [MG132, reference compound] (Cbz-Leu-Leu-Leu-aldehyde) |  |  | effect of co-treatment on Δ2-TG-6 cyclin D1 ablation ([2]; FIG. 8C): could be blocked; effect of co-treatment on TG- and Δ2-TG-induced cyclin D1 ablation [2]: effective in rescuing
CC(C)=CCOc1c(C)c(C)c2c(c1C)CCC(C)(COc1ccc(C=C(C#N)C#N)cc1Br)O2 (stereo not drawn) [TG-36] | > 50 µM | > 7.5 µM | 
O=C1NC(=O)/C(=C/c2ccc(OCC3CCc4ccccc4C3)cc2)S1 (stereo not drawn) [TG-15] | 37 µM |  | 
